From US20260109729A1, “RUTHENIUM COMPLEXES FOR INHIBITION OF GALECTINS, METHOD OF THEIR PREPARATION, AND USE THEREOF” (priority 2023, published 2026)
Like-named read-outs stand apart in the source and are kept apart here.

How the values were obtained:
human galectin-3-CRD = target: T1, human galectin-3-CRD (Homo sapiens, UniProt P17931); test: Fluorescence anisotropy competitive inhibition assay, galectin 3; assay type: binding; conditions: average and standard deviation; for Ki: Ki calculated from IC50 with online calculator, read-out: Ki against human galectin 3-CRD; for IC50: protein 50 nM, probe 5 nM, at least three measurements, read-out: IC50 against human galectin-3-CRD under measured condition
T1 construct: human galectin-3-CRD; fused on or other part: N-terminal His6-GST tag, cleaved off by TEV protease before the fluorescence anisotropy test
T1 sequence (P17931 114-250 limits assumed): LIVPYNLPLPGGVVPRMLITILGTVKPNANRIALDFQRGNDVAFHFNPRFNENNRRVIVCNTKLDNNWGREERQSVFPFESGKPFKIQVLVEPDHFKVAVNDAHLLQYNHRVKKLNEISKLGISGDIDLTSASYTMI
Description: As a competitive fluorescent probe, the compound 3,3′-dideoxy-3-[4-(fluorescein-5-yl-carbonylamino-methyl)-1H-1,2,3-triazol-1-yl]-3′-[4-(3-fluorophenyl)-1H-1,2,3-triazol-1-yl]-1,1′-sulfanediyl-di-β-D-galactopyranoside was used in the measurements. Fluorescence anisotropy was measured using a Tecan Spark multimode microplate reader equipped with fluorescence polarization filters and black polystyrene round-bottomed microtiter plates (Corning®, 384 wells) in samples with a final volume of […]. The samples were incubated in the dark for 30 minutes before measurement.
The Kd values were obtained using nonlinear regression performed by GraphPad Prism software (version 10.0.2, GraphPad, USA) for direct ligand-protein interaction using the formula: A=A0+(Amax−A0)×([G]/(Kd+[G])), where A0 is the anisotropy of the probe in the absence of galectin, Amax is the maximum achieved anisotropy of the probe with increasing galectin concentration, [G] is the total galectin concentration in a measured sample, and A is the measured anisotropy of the measured sample. […] Raw anisotropy data from the reader were plotted against concentration using GraphPad Prism software (version 10.0.2, GraphPad, USA) and nonlinear fitting “[Inhibitor]vs. response—Variable slope (four parameters)” analysis was used to calculate the IC50 values (half-maximal inhibitory concentration) for each titration. The IC50 values from each titration experiment were then used to calculate the inhibition constant Ki using an online calculator (http://websites.umich.edu/-shaomengwanglab/software/calc_ki/index.html).

human galectin-1 [1] = target: T2, human galectin-1 (Homo sapiens, UniProt P09382); test: Fluorescence anisotropy competitive inhibition assay, galectin 1; assay type: binding; set-up: His6-GST (N, cleaved yes); made in house; host or cells: E. coli BL21 RILP; conditions: for Ki: Ki calculated from IC50 with online calculator, read-out: Ki against human galectin-1; for Ki / IC50: average and standard deviation; for affinity to galectin-1 compared with the fluorescent probe: exact Ki not determinable, given as possible range; for IC50: protein 500 nM, probe 100 nM, at least three measurements, read-out: IC50 against human galectin-1 under measured condition
T2 sequence (P09382 whole entry): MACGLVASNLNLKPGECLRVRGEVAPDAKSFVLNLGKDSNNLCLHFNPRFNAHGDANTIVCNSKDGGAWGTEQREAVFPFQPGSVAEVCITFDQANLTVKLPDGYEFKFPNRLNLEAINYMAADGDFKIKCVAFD
Description: Analytical Biochemistry 2004, 334 (1), 36-47, page 39, paragraph “Fluorescence Polarization”. As a competitive fluorescent probe, the compound 3,3′-dideoxy-3-[4-(fluorescein-5-yl-carbonylamino-methyl)-1H-1,2,3-triazol-1-yl]-3′-[4-(3-fluorophenyl)-1H-1,2,3-triazol-1-yl]-1,1′-sulfanediyl-di-β-D-galactopyranoside was used in the measurements. Fluorescence anisotropy was measured using a Tecan Spark multimode microplate reader equipped with fluorescence polarization filters and black polystyrene round-bottomed microtiter plates (Corning®, 384 wells) in samples with a final volume of […]. The samples were incubated in the dark for 30 minutes before measurement.
The Kd values were obtained using nonlinear regression performed by GraphPad Prism software (version 10.0.2, GraphPad, USA) for direct ligand-protein interaction using the formula: A=A0+(Amax−A0)×([G]/(Kd+[G])), where A0 is the anisotropy of the probe in the absence of galectin, Amax is the maximum achieved anisotropy of the probe with increasing galectin concentration, [G] is the total galectin concentration in a measured sample, and A is the measured anisotropy of the measured sample. […] Raw anisotropy data from the reader were plotted against concentration using GraphPad Prism software (version 10.0.2, GraphPad, USA) and nonlinear fitting “[Inhibitor]vs. response—Variable slope (four parameters)” analysis was used to calculate the IC50 values (half-maximal inhibitory concentration) for each titration. The IC50 values from each titration experiment were then used to calculate the inhibition constant Ki using an online calculator (http://websites.umich.edu/-shaomengwanglab/software/calc_ki/index.html). The used model is described in the following publication: Development and optimization of a binding assay for the XIAP BIR3 domain using fluorescence polarization, Analytical Biochemistry 2004, 332 (2), 261-273.

human galectin-1 [2] = target: T2, human galectin-1; conditions: read-out: IC50 against human galectin-1; competitive ELISA, immobilized asialofetuin, His6-GST-Gal-1; average and standard deviation, at least 3 measurements
Description: (§1) An immobilized competitive ligand, asialofetuin (ASF), a glycoprotein terminated with LacNAc residues interacting with galectins, was used. Wells of microtiter plates (96-well BRAND plates-F-pureGrade, BRAND, Germany) were coated with ASF ([…] in 0.1M CO3^2−/HCO3^− buffer pH 9-9.8; 50 μL per well) and incubated overnight in a humid chamber at […]. Subsequently, wells were washed with 1×200 μL PBS (137 mM NaCl, 2.7 mM KCl, 8 mM Na2HPO4, and 2 mM KH2PO4, pH 7.4). PBS-Tween washes were performed 3×5 min following each subsequent step. The wells were blocked with 3% BSA in PBS (200 μL per well) and incubated for 1 hour at room temperature. Increasing concentrations of inhibitors in PBS buffer were mixed with His6-GST-Gal-3 or His6-GST-Gal-1 (target concentration 5 or 10 μM) and incubated in wells with ASF for 1 hour. […] The signal intensity was measured spectrophotometrically using the Multidetection reader Infinititte M1000 PRO (Tecan Group Ltd, CH) at 450 nm and corresponds to the amount of bound galectin. The respective inhibitory constant (IC50) was calculated from nonlinear regression (dose-response inhibition slope) of sigmoidal curves using GraphPad Prism software (version 10.0.2, GraphPad, USA).

human galectin-3 = target: T3, human galectin-3 (Homo sapiens, UniProt P17931); test: Competitive ELISA with immobilized asialofetuin, galectin 3; assay type: binding; conditions: His6-GST-Gal-3, average and standard deviation, at least 3 measurements, read-out: IC50 against human galectin-3
T3 construct: made in house; host or cells: E. coli BL21 RILP
T3 sequence (P17931 whole entry): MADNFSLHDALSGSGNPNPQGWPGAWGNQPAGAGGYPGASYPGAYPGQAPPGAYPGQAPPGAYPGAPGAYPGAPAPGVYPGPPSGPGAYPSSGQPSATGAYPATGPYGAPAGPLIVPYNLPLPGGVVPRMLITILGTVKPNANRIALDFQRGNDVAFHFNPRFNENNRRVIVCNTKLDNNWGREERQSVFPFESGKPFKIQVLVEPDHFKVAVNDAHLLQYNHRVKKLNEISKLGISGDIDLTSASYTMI
Description: as §1

HEK-293 = test: MTT cytotoxicity assay, HEK-293; assay type: cell-based, human; conditions: embryonic kidney control cell line, 24-72 hours incubation
Description: (§2) This assay is based on the reduction of the yellow soluble 3-[4,5-dimethylthiazol-2-yl]-2,5-diphenyl tetrazolium bromide (MTT) to insoluble formazan (blue star-shaped crystals). The reaction takes place on the mitochondrial membrane of living cells. Subsequently, the formazan is dissolved by adding a strong detergent (dimethyl sulfoxide, DMSO), and the color is evaluated spectrophotometrically at a wavelength of 570-595 nm.
(§3) Human cell lines derived from ovarian carcinoma (A2780, SK-OV-3), breast carcinoma (MDA-MB-231, MCF-7), and non-tumor epithelial line MCF-10A were used for the cytotoxicity test. Additionally, a cell line derived from embryonic kidney cells HEK293 was used as a control. A2780 cells were cultured in RPMI 1640 medium (Sigma-Aldrich) containing 10% fetal bovine serum (Biochrom AG), 2 mM L-glutamine (Gibco), and 100 U/mL penicillin/streptomycin (Biosera). SK-OV-3 cells were cultured in McCoy's medium (Sigma-Aldrich) containing 10% fetal bovine serum (Biochrom AG) and 100 U/mL penicillin/streptomycin (Biosera). […] After dissolving the blue crystals, the absorbance was measured in the wells of the plate on an ELISA Reader (Multidetection reader Infinititte M1000 PRO (Tecan Group Ltd, CH)) at a wavelength of 570-595 nm. Evaluation of IC50 as the inflection point of the curve of measured absorbance values using the GraphPad Prism software (version 10.0.2, GraphPad, USA).

A2780 = test: MTT cytotoxicity assay, A2780; assay type: cell-based, human; conditions: ovarian carcinoma, 24-72 hours incubation
Description: as §2, §3

SK-OV-3 = test: MTT cytotoxicity assay, SK-OV-3; assay type: cell-based, human; conditions: ovarian carcinoma, 24-72 hours incubation
Description: as §2, §3

MDA-MB-231 = test: MTT cytotoxicity assay, MDA-MB-231; assay type: cell-based, human; conditions: breast carcinoma, 24-72 hours incubation
Description: as §2, §3

MCF-7 = test: MTT cytotoxicity assay, MCF-7; assay type: cell-based, human; conditions: breast carcinoma, 24-72 hours incubation
Description: as §2, §3

MCF-10A = test: MTT cytotoxicity assay, MCF-10A; assay type: cell-based, human; conditions: non-tumor epithelial line, 24-72 hours incubation
Description: as §2, §3

Substance	Ki (human galectin-3-CRD)	IC50 (human galectin-3-CRD)	Ki (human galectin-1 [1])	affinity to galectin-1 compared with the fluorescent probe (human galectin-1 [1])	IC50 (human galectin-1 [1])	IC50 (human galectin-1 [2])	IC50 (human galectin-3)	IC50 (HEK-293)	IC50 (A2780)	IC50 (SK-OV-3)	IC50 (MDA-MB-231)	IC50 (MCF-7)	IC50 (MCF-10A)
Ruthenium Complex with Benzene and Cl Ligands and PF6^− Counterions [Compound 7]	3.54 ± 0.32 µM	16.8 ± 1.5 µM	< 0.005 µM	significantly better affinity to galectin-1 than used fluorescent probe	0.307 ± 0.033 µM								
Ruthenium Complex with Hexamethylbenzene and Cl Ligands and PF6^− Counterions [Compound 8]	43.4 ± 13 µM	205 ± 63 µM	0.114 ± 0.011 µM		0.498 ± 0.026 µM								
Ruthenium Complex with p-Cymene and Cl Ligands and BF4^− Counterions [Compound 5]	10.7 ± 1.9 µM	50.7 ± 9 µM	< 0.005 µM	significantly better affinity to galectin-1 than used fluorescent probe	0.187 ± 0.004 µM								
Ruthenium Complex with p-Cymene and Cl Ligands and Cl^− Counterions [Compound 4]	21.2 ± 2.7 µM	100 ± 12 µM	0.018 ± 0.011 µM		0.328 ± 0.018 µM	0.026 ± 0.004 µM	87.2 ± 4.4 µM	158 ± 42 µM	> 200 µM	> 200 µM	> 200 µM	> 200 µM	> 200 µM
Ruthenium Complex with p-Cymene and Cl Ligands and PF6^− Counterions [Compound 6]	15.2 ± 0.2 µM	71.7 ± 0.84 µM	< 0.005 µM	significantly better affinity to galectin-1 than used fluorescent probe	0.231 ± 0.017 µM		104 ± 38 µM	174 ± 28 µM		> 200 µM	141 ± 8 µM		
Ruthenium Complex with p-Cymene and I Ligands and I^− Counterions [Compound 9]	19 ± 3.3 µM	89.8 ± 16 µM	0.037 ± 0.009 µM		0.37 ± 0.016 µM								
Ruthenium Complex with p-Cymene and I Ligands and PF6^− Counterions [Compound 10]	15.6 ± 1.8 µM	73.5 ± 8.1 µM	0.023 µM		0.347 ± 0.013 µM								
